In one experiment the test system is IRF. The experiment can be described thus: IRF reporter activity in THP1-Dual cells treated with conditioned media and/or compounds (QuantiLuc). The format is cell-based, human. As to the method:
(§1) HeLa cervical cancer cells were grown in either DMEM containing 10% FBS (standard culture conditions), or in PBS (nutrient-deprivation) for 48 hours. Conditioned media from each condition was then transferred to THP1-Dual cells in the presence of 300 ng/ml of 2′3′-cGAMP (purchased from Invivogen, cat no. tlrl-nacga23, and resuspended in water). THP1 cells treated with conditioned media were incubated for an additional 24 hours. THP1 supernatants were then assessed for NfkB or IRF reporter activity.
HeLa cells were acquired from the ATCC (catalog no. CCL 2.2) and were cultured in DMEM containing 10% FBS. THP1-Dual cells, which are human monocytes that report on both the NfkB and IRF pathways, were purchased from Invivogen (cat no. thpd-nfis) and were cultured in RPMI containing 10% FBS and 100 μg/ml normocin.
(§2) To generate conditioned media, 3 million HeLa cells were seeded in a 10 cm dish in DMEM containing 10% FBS. Cells were left overnight to adhere and then plates were washed 3× with PBS prior to replacing media with either fresh DMEM containing 10% FBS, or with PBS. Cells were incubated for 48 hours, and then the conditioned media was removed, spun down and sterile filtered.
To measure IRF or NfkB pathway activation, 35,000 THP1-Dual cells/well were seeded in a 96-well plate (100 μl/well). 100 μl of HeLa conditioned media was transferred to each well, plus or minus 2′3′-cGAMP (300 ng/ml final concentration). After a 24 hour incubation period, IRF and NfkB activity were measured. To measure IRF activity, 50 μl of THP1 supernatant was transferred to a 96-well plate, and 50 μl of QuantiLuc reagent was added to each well immediately prior to reading luminescence by a platereader. To measure NfkB activity, 50 μl of THP1 supernatant was transferred to a 96-well plate containing 200 μl of QuantiBlue reagent. The plate was then incubated at room temperature for 2-3 hours prior to reading the absorbance at 655 nm.
THP1-Dual cells (acquired from Invivogen) were seeded at 35,000 cells/well in a 96-well plate (100 μl/well). In a separate treatment plate, a 3-fold dose-response curve of each CDN was prepared, starting at 40 μg/ml, in either plain PBS or in combination with HeLa-PBS conditioned media (conditioned media prepared as previously described). 100 μl of compound treatment was transferred to THP1 cells (1:1 dilution) and cells were incubated for 24 hours. THP1 supernatants were subsequently removed and assayed for IRF activity.
THP1-Dual cells were plated at 35,000 cells/well in 96-well format. To each well, 100 μl of conditioned media was added (in triplicate) in the presence or absence of 2′3′-cGAMP (300 ng/ml). THP1-Dual cells were then incubated for 24 hours with conditioned media prior to assaying IRF induction.
THP1-Dual cells (acquired from Invivogen) were seeded at 35,000 cells/well in a 96-well plate (100 μl/well). In a separate treatment plate, a 3-fold dose-response curve of each purinergic receptor antagonist was prepared, starting at 20 μM, in either 2′3′-cGAMP alone or 2′3′-cGAMP in combination with HeLa-PBS conditioned media (conditioned media prepared as described in examples above). 100 μl from the treatment plate was then transferred to THP1 cells (1:1 dilution), and the cells were incubated for 24 hours. THP1 supernatants were removed and tested for IRF activity.
THP1 cells, acquired from Invivogen, were seeded at 35,000 cells/well in 96-well format, in 100 μl media. In a separate treatment plate, a dose curve of PSB 1114, starting at 20 μM, was prepared in either plain PBS, or in the presence of cGAMP. 100 μl from treatment plate was transferred to THP1 cells (1:1 dilution), and cells were incubated for 24 hours prior to IRF and NfkB read-out.
THP1 cells, acquired from Invivogen, were seeded at 35,000 cells/well in 96-well format, in 100 μl media. In a separate treatment plate, a dose curve of Diquafosol (acquired from MedChemExpress), starting at 100 μM, was prepared in either plain PBS, or in the presence of cGAMP. […]

The subject of experiment [1] is IFN-beta. The experiment can be described thus: IFN-beta secretion from THP1 monocytes (ELISA). The format is cell-based, human. The conditions noted are these: THP1 monocytes exposed to HeLa/PBS conditioned media in combination with 2′3′-cGAMP 300 ng/ml, 24 hours. As to the method:
(§3) HeLa cervical cancer cells were grown in PBS (nutrient-deprivation) for 48 hours. THP1 cells were then treated with the HeLa-PBS (nutrient deprived) conditioned media in the presence and absence of 2′3′-cGAMP. THP1 supernatants were then assayed for the secretion of IFN-beta, a cytokine regulated by IRF. The same experiment was additionally performed using the mouse macrophage cell line J774 in place of the THP1 cells.
as §2
500,000 THP1-Dual cells/well were seeded in a 24-well plate. 500 μl (1:1 dilution) of each condition was added to the well (PBS; PBS+300 ng/ml cGAMP; HeLa-PBS CM; HeLa-PBS CM+300 ng/ml cGAMP) and incubated for 24 hours. Cell supernatants were then spun down and sterile filtered prior to performing ELISA assay. ELISA assay was performed using the human IFN-beta DuoSet ELISA kit (DY814-05) and following the protocol provided by the manufacturer.
A general note: An ELISA detects its analyte on a solid surface through an enzyme-linked reagent.

Another experiment has as its system NfkB. The experiment is described as follows: NfkB reporter activity in THP1-Dual cells (QuantiBlue). The format is cell-based, human. To be noted: 24 hours. As to the method:
as §1
HeLa cells were acquired from the ATCC (catalog no. CCL 2.2) and were cultured in DMEM containing 10% FBS. THP1-Dual cells, which are human monocytes that report on both the NfkB and IRF pathways, were purchased from Invivogen (cat no. thpd-nfis) and were cultured in RPMI containing 10% FBS and 100 μg/ml normocin. […]
To measure IRF or NfkB pathway activation, 35,000 THP1-Dual cells/well were seeded in a 96-well plate (100 μl/well). […] After a 24 hour incubation period, IRF and NfkB activity were measured. To measure IRF activity, 50 μl of THP1 supernatant was transferred to a 96-well plate, and 50 μl of QuantiLuc reagent was added to each well immediately prior to reading luminescence by a platereader. […] The plate was then incubated at room temperature for 2-3 hours prior to reading the absorbance at 655 nm.

Experiment [2] concerns IFN-beta. The experiment is described as follows: IFN-beta secretion from J774 macrophages (ELISA). The format is cell-based, mouse. The conditions noted are these: J774 macrophages exposed to HeLa/PBS conditioned media in combination with 2′3′-cGAMP, 24 hours. As to the method:
as §3, §2
The same experiment was additionally performed using J774 cells (ATCC, TIB-67). In brief 500,000 cells/well were seeded in a 24-well plate. After cell adherence, media was refreshed, and HeLa conditioned media was added either in the presence or absence of 2′3′-cGAMP (as described above). After 24 hours J774 supernatant was removed an assayed for IFN-beta secretion as described above.

For experiment [3], the system named is A20 B-cell lymphoma tumor cells. The experiment can be described thus: Survival in mouse model of A20 B-cell lymphoma. The format is in vivo, BALB/c mice. The conditions noted are these: combination of 1 μg/kg ADU-S100 and 10 mg/animal diquafosol tetrasodium intratumorally once per day (Group 5), relative to either agent alone (Groups 2, 4). On the procedure:
Test BALB/c mice were injected subcutaneously in the right flank with 1×10^6 A20 B-cell lymphoma tumor cells (in a 0.1 mL cell suspension). Sixteen days after tumor cell implantation, on Day 1 of the study, animals were sorted into ten groups (n=10) with individual tumor volumes between 48 and 100 mm^3 and a group mean tumor volume of 81 mm^3. Five groups of mice were dosed according in the following treatment groups.
Group 1 received Vehicle (PBS) intratumorally once per day. • Group 2 received 1 μg/kg of the STING agonist (ADU-S100) intratumorally once per day. • Group 3 received 50 μg/kg of the STING agonist (ADU-S100) intratumorally once per day. • Group 4 received 10 mg/animal of the purinergic receptor agonist (diquafosol testrasodium) intratumorally once per day. • Group 5 received 1 μg/kg ADU-S100 intratumorally combined with 10 mg/animal of diquafosol testrasodium intratumorally once per day.
ADU-S100 and Diquafosol tetrasodum were dosed intratumorally (itu) in a total volume of 50 μL of therapeutic agents; combination therapies were administered as single injections containing 2×25 μL of 2× dosing solutions.
Tumors were measured using calipers twice per week.

A further experiment concerns 4T1 mammary carcinoma. To be noted: Corrales et al., 2015; cited from earlier work.
In the next experiment the test system is human STING alleles. The conditions noted are these: HEK293T cells; Corrales et al., 2015; cited from earlier work.
A further experiment has as its system IFN-β. The conditions noted are these: PBMCs isolated from multiple donors with different STING genotypes; Corrales et al., 2015; cited from earlier work.
The subject of the next experiment is CT26 colon carcinoma. To be noted: Corrales et al., 2015; cited from earlier work.
In a further experiment the test system is B16.F10 melanoma. The conditions noted are these: Corrales et al., 2015; cited from earlier work.
Where [4] appears, read: combination of Diquafosol (dose curve starting at 100 μM) and cGAMP, THP1 cells, 24 hours.
[5] abbreviates: combination of PSB 1114 (dose curve starting at 20 μM) and 2′3′-cGAMP, THP1 cells, 24 hours.
[6] abbreviates: combination of Diquafosol (dose curve starting at 100 μM) and ADU-S100 (2 μM), THP1 cells, 24 hours.

For the compound `Nc1nc2c(ncn2[C@@H]2O[C@@H]3COP(=O)(O)O[C@H]4[C@@H](O)[C@H](n5cnc6c(N)ncnc65)O[C@@H]4COP(=O)(O)O[C@@H]2[C@@H]3O)c(=O)[nH]1` [2′3′-cGAMP], the IRF signaling result is “induced IRF signaling” in the experiment on IRF (setting [4]); “induced IRF signaling” with IRF (setting [5]); “only slightly induced” in the experiment with IRF (combination of conditioned media from HeLa cells in DMEM+10% FBS (standard culture) and 2′3′-cGAMP 300 ng/ml, THP1-Dual cells, 24 hours); “increased” with IRF (combination of nutrient-starved (PBS, 48 hours) HeLa conditioned media and 2′3′-cGAMP 300 ng/ml, THP1-Dual cells, 24 hours); “induced IRF signaling” with IRF (combinations of cGAMP with purinergic receptor agonist nucleotide triphosphates, human monocytes, data not shown). Further, the IRF activation result with IRF (conditioned media (PBS, 48 hours) of A549, A427, J774, AMJ2C11, PANC1, MLE12, RAW264, Calu-1, MCF7 cells in combination with 2′3′-cGAMP 300 ng/ml, THP1-Dual cells, 24 hours) is on record as “induced IRF activation”. Moreover, the IFN-beta secretion entry in the experiment on IFN-beta [1] and with IFN-beta [2] was “increased” in each case. For the same compound, the NFKB signaling result is given as “only slightly induced” in the experiment on NfkB (combination of conditioned media from HeLa cells in DMEM+10% FBS (standard culture) and 2′3′-cGAMP 300 ng/ml); “increased” in the experiment on NfkB (combination of nutrient-starved (PBS, 48 hours) HeLa conditioned media and 2′3′-cGAMP 300 ng/ml).
For the compound `Nc1ncnc2c1ncn2[C@@H]1O[C@@H]2COP(=O)([S-])O[C@@H]3[C@H](O)[C@@H](COP([O-])(=S)O[C@H]2[C@H]1O)O[C@H]3n1cnc2c(N)ncnc21.[Na+].[Na+]` (some centres unmarked) [ADU-S100], in [3], the survival result is “much greater effect on increasing survival”. Further, the “antitumor immune response and tumor regression” value in the experiment with 4T1 mammary carcinoma is “potent antitumor immune response and significant tumor regression”; with CT26 colon carcinoma, “potent antitumor immune response and significant tumor regression”; in the experiment on B16.F10 melanoma it was “potent antitumor immune response and significant tumor regression”. Further, the IRF signaling result in the experiment on IRF (combination of ADU-S100 (dose curve starting at 20 μM) and nutrient starved (PBS) HeLa conditioned media, THP1 cells, 24 hours) is listed as “strongly increased IRF signaling”; in the experiment on IRF (setting [6]), “synergizes”. Besides, in the experiment with human STING alleles, the STING activation entry was “broadly activate all known human STING alleles”. Besides, the “expression of IFN-β” value with IFN-β is “induced dose-dependent expression of IFN-β”.
Regarding `Cc1ccc2c(c1)C=Cc1cc(C)ccc1C2c1cn(Cc2ccc(C(=O)Nc3nn[nH]n3)o2)c(=O)[nH]c1=S` [AR-C 118925], in the experiment on IRF (purinergic receptor antagonist 3-fold dose-response starting at 20 μM, THP1-Dual cells, 24 hours), the “synergistic induction of IRF activity by cGAMP in combination with HeLa-PBS conditioned media” value is on record as “inhibited”.
With `O=c1ccn([C@@H]2O[C@H](COP(=O)(O)OP(=O)(O)OP(=O)(O)OP(=O)(O)OC[C@H]3O[C@@H](n4ccc(=O)[nH]c4=O)[C@H](O)[C@@H]3O)[C@@H](O)[C@H]2O)c(=O)[nH]1` [Diquafosol], the survival entry in experiment [3] is recorded as “much greater effect on increasing survival”. Further, the IRF signaling entry is given as “synergizes” in the experiment with IRF (setting [6]) and “induced IRF signaling” in the experiment on IRF (setting [4]).
Turning to `O=c1[nH]c(=S)ccn1[C@@H]1O[C@H](COP(=O)(O)OP(=O)(O)C(F)(F)P(=O)(O)O)[C@@H](O)[C@H]1O` [PSB 1114], in the experiment on IRF (setting [5]), the IRF signaling entry is reported as “induced IRF signaling”.

The values above are taken from patent publication US11376272B2, “Methods of modulating immune activity” (Flagship Pioneering Innovations V, Inc., priority 2019, dated 2022).
